Results taken from article PMC11122761, “Synthetic ShK-like Peptide from the Jellyfish Nemopilema nomurai Has Human Voltage-Gated Potassium-Channel-Blocking Activity” (Marine Drugs, 2024).
“Also recorded” adds a separate entry of the source. Where no end group is shown, it is not given here.

Assays:
[1] = tested on: hKv1.3; assay: Whole-cell patch-clamp current recording, hKv1.3; type: cell-based, human; settings: for inhibition of the current amplitudes of hKv1.3 by NnK-1 analogs / current of hKv1.3 (current amplitude), effect of treatment: 0.01, 1, 100, or 500 nM; for inhibition of the current amplitudes of hKv1.3 by NnK-1 analogs: Figure 6; for hKv1.3 current amplitude at 50 mV, one-way ANOVA p: overall, 0, 0.01, 1, 100, or 500 nM; for hKv1.3 IV curve, p vs. 0 nM: IV curves −130 to 50 mV (Figure 3), two-way ANOVA; for hKv1.3 IV curve, p vs. 0 nM / reduction of hKv1.3 current amplitude at 50 mV, p vs. 0 nM: Dunnett's post hoc; for reduction of hKv1.3 current amplitude at 50 mV, p vs. 0 nM: one-way ANOVA; for current of hKv1.3 (current amplitude), effect of treatment: HEK293 cells expressing hKv1.3, bath-applied for 2 min, whole-cell, holding potential –70 mV; for hKv1.3 IV curves, two-way ANOVA group effect p: group effect, 0, 0.01, 1, 100, or 500 nM, Figure 3 IV curves
Procedure: (§1) The amplification was performed in the Veriti™ 96-Well Fast Thermal Cycler (Applied Biosystems, Waltham, MA, USA) with a thermal cycling program consisting of predenaturation for 3 min at 95 °C, followed by 30 cycles of denaturation for 30 s at 95 °C, annealing for 30 s at 58 °C, and extension for 30 s at 72 °C, with a final extension for 3 min at 72 °C. A Human cDNA Clone Set (OriGene Technologies GmbH, Herford, Germany) was used as the template. A MCS (multi-cloning site) digested from the pAAV-MCS vector (Cell Biolabs, San Diego, CA, USA) was ligated into the pIRES2-EGFP vector (Clontech Laboratories, Mountain View, CA, USA) to form pAAV–CMV–IRES2–EGFP. The PCR products were ligated into the pAAV–CMV–IRES2–EGFP vector at the NheI and SalI sites to construct pAAV–CMV–hKv–IRES2–EGFP.
(§2) The HEK293 cells were transfected with pAAV–CMV–hKv–IRES2–EGFP (2 μg) using Effectene Transfection Reagent (Qiagen, Hilden, Germany) for 12–18 h. The transfectants (1 × 10^5/mL) were seeded onto 12 mm coverslips coated with 0.01 mg/mL poly-D-lysine for 2–3 h.
The HEK293 cells expressing AAV–CMV–hKv–IRES2–EGFP were reseeded onto coverslips. The HEK293 transfectants were monitored for their green fluorescence and used as patch cells. Patch pipettes were filled with an internal solution (140 mM potassium gluconate, 10 mM HEPES, 0.2 mM ATP, and 0.06 mM GTP). An external solution [130 mM NaCl, 10 mM HEPES, 3 mM KCl, 1.5 mM D-glucose, 10 mM sucrose, […], 1.5 mM MgCl2·6H2O, osmolarity 320 mmol/kg (pH 7.2)] was used as the basic buffer. Psora4, ShK, or NnK-1 (0, 0.01, 1, 100, or 500 nM) was bath-applied for 2 min to block the currents recorded from the HEK293 cells expressing AAV–CMV–hKv–IRES2–EGFP with voltages ranging from −130 to 50 mV in the increments of 20 mV and 0.6 s. Whole-cell patch recordings from […] under voltage-clamp conditions (holding potential of –70 mV) were made with the Multiclamp 700 B microelectrode amplifier (Automate Scientific Inc., Berkeley, CA, USA) digitized with a Digidata 1322 A data acquisition system (Molecular Devices Limited, San Jose, CA, USA). In this study, all electrophysiological data from the cultured cells were obtained at a temperature of 23–25 °C and maintained with the CL-100 Temperature Controller (Warner Instruments LLC, Hamden, CT, USA).

[2] = tested on: hKv11.1; assay: Whole-cell patch-clamp current recording, hKv11.1; type: cell-based, human; settings: 100 nM NnK-1; Figure 4F; HEK293, bath-applied 2 min, 23–25 °C
Procedure: as §1
(§3) The HEK293 cells were transfected with pAAV–CMV–hKv–IRES2–EGFP (2 μg) using Effectene Transfection Reagent (Qiagen, Hilden, Germany) for 12–18 h. […]
(§4) The HEK293 cells expressing AAV–CMV–hKv–IRES2–EGFP were reseeded onto coverslips. The HEK293 transfectants were monitored for their green fluorescence and used as patch cells. […] Psora4, ShK, or NnK-1 (0, 0.01, 1, 100, or 500 nM) was bath-applied for 2 min to block the currents recorded from the HEK293 cells expressing AAV–CMV–hKv–IRES2–EGFP with voltages ranging from −130 to 50 mV in the increments of 20 mV and 0.6 s. […]

[3] = Maintenance of disulfide bonds of synthetic NnK-1 in solution; type: physicochemical; settings: dissolved in a solution; inferred from comparison with NnK-1 w/o d on hKv1.3
From the text: Another peptide, NnK-1 w/o d, which had the same amino acid residues but without three pairs of disulfide bonds, was also synthesized to test whether the disulfide bonds were still intact in the synthetic NnK-1 after being dissolved in a solution.

[4] = tested on: untransfected HEK293 cells; assay: Cell viability assay (CCK-8), untransfected HEK293 cells; type: cell-based; settings: 1 h treatment, 0.01, 1, 100, and 500 nM; CCK-8, absorbance 450 nm
Procedure: (§5) The cell viability of the HEK293 cells was assessed with a Cell Counting Kit-8 (CCK-8, DJDB4000X, Dojindo laboratory, Kumanoto, Japan). Both the HEK293 cells and HEK293 cells expressing AAV–CMV–hKv–IRES2–EGFP were seeded onto a 96-well plate (1 × 10^4 cells/well). After 24 h of incubation, ShK, NnK-1, NnK-1 mu, and NnK-1 w/o d (0, 0.01, 1, 100, or 500 nM) were used to treat the cells in each well for 1 h. After that, a dye solution was used to treat the cells for 2 h, and the absorbance was measured at 450 nm using a microplate reader (GloMax explorer multimode, Promega, Madison, WI, USA).

[5] = tested on: hKv1.3-transfected HEK293 cells; assay: Cell viability assay (CCK-8), hKv1.3-transfected HEK293 cells; type: cell-based; settings: 1 h treatment, 0.01, 1, 100, and 500 nM; CCK-8, absorbance 450 nm
Procedure: as §2, §5

[6] = tested on: hKv1.1; assay: Whole-cell patch-clamp current recording, hKv1.1; type: cell-based, human; settings: HEK293, bath-applied 2 min
Procedure: as §1, §3, §4

[7] = tested on: hKv1.5; assay: Whole-cell patch-clamp current recording, hKv1.5; type: cell-based, human
Procedure: as §1, §2
(§6) The HEK293 cells expressing AAV–CMV–hKv–IRES2–EGFP were reseeded onto coverslips. The HEK293 transfectants were monitored for their green fluorescence and used as patch cells. Patch pipettes were filled with an internal solution (140 mM potassium gluconate, 10 mM HEPES, 0.2 mM ATP, and 0.06 mM GTP). An external solution [130 mM NaCl, 10 mM HEPES, 3 mM KCl, 1.5 mM D-glucose, 10 mM sucrose, […], 1.5 mM MgCl2·6H2O, osmolarity 320 mmol/kg (pH 7.2)] was used as the basic buffer. Psora4, ShK, or NnK-1 (0, 0.01, 1, 100, or 500 nM) was bath-applied for 2 min to block the currents recorded from the HEK293 cells expressing AAV–CMV–hKv–IRES2–EGFP with voltages ranging from −130 to 50 mV in the increments of 20 mV and 0.6 s. […]

[8] = tested on: hKv1.4; assay: Whole-cell patch-clamp current recording, hKv1.4; type: cell-based, human
Procedure: as §1, §2, §6

[9] = tested on: hKv3.1; assay: Whole-cell patch-clamp current recording, hKv3.1; type: cell-based, human; settings: 100 nM NnK-1; Figure 4E; HEK293, bath-applied 2 min, 23–25 °C
Procedure: as §1, §3, §4

[10] = HEK293, bath-applied 2 min, 23–25 °C
[11] = 0.01 nM, HEK293, bath-applied 2 min, pH 7.2, 23–25 °C
[12] = 1 nM, HEK293, bath-applied 2 min, pH 7.2, 23–25 °C
[13] = 1 nM, bar graph at 50 mV (Figure 3), HEK293, bath-applied 2 min, pH 7.2, 23–25 °C
[14] = 100 nM, HEK293, bath-applied 2 min, 23–25 °C (Figure 4)
[15] = 100 nM, HEK293, bath-applied 2 min, pH 7.2, 23–25 °C
[16] = 100 nM, bar graph at 50 mV (Figure 3), HEK293, bath-applied 2 min, pH 7.2, 23–25 °C
[17] = 500 nM, HEK293, bath-applied 2 min, pH 7.2, 23–25 °C
[18] = 500 nM, bar graph at 50 mV (Figure 3), HEK293, bath-applied 2 min, pH 7.2, 23–25 °C
[19] = electrophysiological assay, summary statement

CKDHHTYGVYCKDWKSSGECKKNPKGMRHFCRKTCGFC [NnK-1 w/o d, same amino acid residues as NnK-1 but without three pairs of disulfide bonds]
inhibition of the current amplitudes of hKv1.3 by NnK-1 analogs [1, 10]: neither NnK-1 mu nor NnK-1 w/o d inhibited the current amplitudes of hKv1.3
hKv1.3 current amplitude at 50 mV, one-way ANOVA p ([1]; Figure 6 bar graphs): 0.28

CKDHHTYGVYCKDWKSSGECKKNPKGMRHFCRKTCGFC (disulfide (positions not given here)) [NnK-1, fifth ShK-like peptide of the Nemopilema nomurai NnK-1 precursor, chemically synthesized]
hKv1.3 IV curve, p vs. 0 nM [1, 11]: < 0.01
reduction of hKv1.3 current amplitude at 50 mV, p vs. 0 nM ([1]; 0.01 nM, bar graph at 50 mV (Figure 3), HEK293, bath-applied 2 min, pH 7.2, 23–25 °C): < 0.05
hKv1.3 IV curve, p vs. 0 nM [1, 12]: < 0.0001
reduction of hKv1.3 current amplitude at 50 mV, p vs. 0 nM [1, 13]: < 0.0001
hKv1.3 IV curve, two-way ANOVA group effect p ([1]; 100 nM NnK-1, Figure 4B, HEK293, bath-applied 2 min, 23–25 °C): < 0.05
reduction of hKv1.3 current amplitude at 50 mV, p vs. 0 nM ([1]; 100 nM, Figure 6B, HEK293, bath-applied 2 min): < 0.05
inhibition of the current amplitude of hKv1.3 [1, 14]: significantly inhibited
hKv1.3 IV curve, p vs. 0 nM [1, 15]: < 0.0001
reduction of hKv1.3 current amplitude at 50 mV, p vs. 0 nM [1, 16]: < 0.0001
reduction of hKv1.3 current amplitude at 50 mV, p vs. 0 nM ([1]; 500 nM, Figure 6B, HEK293, bath-applied 2 min): < 0.05
hKv1.3 IV curve, p vs. 0 nM [1, 17]: < 0.0001
reduction of hKv1.3 current amplitude at 50 mV, p vs. 0 nM [1, 18]: < 0.0001
current of hKv1.3 (current amplitude), effect of treatment ([1]; pH 7.2, 23–25 °C): significantly reduced
channel block, hKv1.3 [1, 19]: effective blocker; also recorded: Kv1.3-blocking activity
hKv1.3 IV curves, two-way ANOVA group effect p [1]: < 0.0001
hKv1.3 current amplitude at 50 mV, one-way ANOVA p ([1]; Figure 3 bar graphs): < 0.0001
hKv1.3 current amplitude at 50 mV, one-way ANOVA p ([1]; Figure 6 bar graphs): < 0.05
hKv11.1 IV curve, two-way ANOVA group effect p [2]: 0.39
disulfide bonds in solution [3]: maintained even when dissolved in a solution
cell viability, untransfected HEK293 [4]: no difference
cell viability, hKv1.3-transfected HEK293 [5]: no difference
hKv1.1 IV curve, two-way ANOVA group effect p ([6]; 100 nM NnK-1, Figure 4A, 23–25 °C): 0.52
inhibition of the current amplitude of hKv1.1 ([6]; 100 nM, 23–25 °C (Figure 4)): not that of hKv1.1, hKv3.1, and hKv.11.1
hKv1.5 IV curve, two-way ANOVA group effect p ([7]; 100 nM NnK-1, Figure 4D, HEK293, bath-applied 2 min, 23–25 °C): < 0.001
inhibition of the current amplitude of hKv1.5 [7, 14]: significantly inhibited
channel block, hKv1.5 [7, 19]: effective blocker
hKv1.4 IV curve, two-way ANOVA group effect p ([8]; 100 nM NnK-1, Figure 4C, HEK293, bath-applied 2 min, 23–25 °C): < 0.01
inhibition of the current amplitude of hKv1.4 [8, 14]: significantly inhibited
channel block, hKv1.4 [8, 19]: effective blocker
hKv3.1 IV curve, two-way ANOVA group effect p [9]: 0.46

O=c1ccc2c(OCCCCc3ccccc3)c3ccoc3cc2o1 [Psora4, reference compound]
hKv1.3 IV curve, p vs. 0 nM [1, 11]: < 0.05
hKv1.3 IV curve, p vs. 0 nM [1, 12]: < 0.0001
reduction of hKv1.3 current amplitude at 50 mV, p vs. 0 nM [1, 13]: < 0.01
hKv1.3 IV curve, p vs. 0 nM [1, 15]: < 0.0001
reduction of hKv1.3 current amplitude at 50 mV, p vs. 0 nM [1, 16]: < 0.001
hKv1.3 IV curve, p vs. 0 nM [1, 17]: < 0.0001
reduction of hKv1.3 current amplitude at 50 mV, p vs. 0 nM [1, 18]: < 0.0001
current of hKv1.3 (current amplitude), effect of treatment ([1]; pH 7.2, 23–25 °C): significantly reduced
hKv1.3 IV curves, two-way ANOVA group effect p [1]: < 0.0001
hKv1.3 current amplitude at 50 mV, one-way ANOVA p ([1]; Figure 3 bar graphs): < 0.0001

CKEHHTYGVYCKDWKSSGECKKNPRGMRHFCRKMCGFC (disulfide (positions not given here)) [NnK-1 mu, NnK-1 with three amino acids substituted with 3Glu, 25Arg, and 34Met]
inhibition of the current amplitudes of hKv1.3 by NnK-1 analogs [1, 10]: neither NnK-1 mu nor NnK-1 w/o d inhibited the current amplitudes of hKv1.3
hKv1.3 current amplitude at 50 mV, one-way ANOVA p ([1]; Figure 6 bar graphs): 0.89
